Data reported in ChEMBL document CHEMBL4130359, “Indazole-based ligands for estrogen-related receptor α as potential anti-diabetic agents” (Eur J Med Chem, 2017).

Key:
[1] = target: Oxysterols receptor LXR-alpha (Homo sapiens, UniProt Q13133); assay: Antagonist activity at recombinant GST-tagged human LXRalpha LBD assessed as inhibition of TO901317-induced fluorescein-labeled coactivator peptide recruitment preincubated with enzyme followed by coactivator addition by LanthaScreen TR-FRET assay
Rattus norvegicus [2] = assay: Toxicity in Zucker rat sub-chronic fa/fa prediabetic model assessed as body weight at 50 mg/kg, po qd for 29 days measured on day 29 post last dose (reference value: 533 +/- 10 g); format: organism-based; conditions: in vivo, 696 h
[3] = Cmax in […] chronic ob/ob model at 50 mg/kg, po qd for 28 days measured on day 28 post last dose; format: ADME, organism-based; parameters: dose 50 mg/kg, route oral; conditions: in vivo
Rattus norvegicus [4] = assay: Effect on EIF2B3 gene expression in epididymal white adipose tissue of Zucker rat sub-chronic fa/fa prediabetic model at 10 mg/kg, po qd for 15 days by microarray analysis relative to control; format: functional
Rattus norvegicus [5] = assay: Antidiabetic activity in Zucker rat sub-chronic fa/fa prediabetic model assessed as increase in serum adiponectin level administered orally once daily for 32 days by ELISA; format: functional, organism-based
Rattus norvegicus [6] = assay: Toxicity in Zucker rat sub-chronic fa/fa prediabetic model assessed as serum creatinine level at 1 mg/kg, po qd for 31 days measured on day 32 (reference value: 0.71 +/- 0.07 mg/dl); format: organism-based; conditions: in vivo, 744 h
Rattus norvegicus [7] = assay: Effect on CPT2 gene expression in epididymal white adipose tissue of Zucker rat sub-chronic fa/fa prediabetic model at 10 mg/kg, po qd for 15 days by microarray analysis relative to control; format: functional
Rattus norvegicus [8] = assay: Effect on MED24 gene expression in epididymal white adipose tissue of Zucker rat sub-chronic fa/fa prediabetic model at 10 mg/kg, po qd for 15 days by microarray analysis relative to control; format: functional
[9] = Half life in Sprague-Dawley rat at 2 mg/kg, iv by LC-MS analysis; format: ADME, organism-based; conditions: in vivo
Rattus norvegicus [10] = assay: Toxicity in […] chronic ob/ob model assessed as serum creatinine level at 50 mg/kg, po qd for 31 days measured on day 32 (reference value: 0.55 +/- 0.018 mg/dl); format: organism-based; conditions: in vivo, 744 h
Rattus norvegicus [11] = assay: Antidiabetic activity in […] model assessed as HbA1C level at 3 mg/kg, po qd for 31 days measured on day 32 post dose (reference value: 5.9 +/- 0.18%); format: functional
[12] = Drug uptake in plasma of Zucker rat sub-chronic fa/fa prediabetic model at 12.5 mg/kg, po qd for 11 days; format: ADME, organism-based
Rattus norvegicus [13] = format: functional, Zucker
Rattus norvegicus [14] = assay: Toxicity in Zucker rat sub-chronic fa/fa prediabetic model assessed as serum creatinine level at 3 mg/kg, po qd for 31 days measured on day 32 (reference value: 0.71 +/- 0.07 mg/dl); format: organism-based; conditions: in vivo, 744 h
Rattus norvegicus [15] = format: functional, Zucker; remark: listed apart in the source
Rattus norvegicus [16] = assay: Effect on NDUFA12 gene expression in epididymal white adipose tissue of Zucker rat sub-chronic fa/fa prediabetic model at 10 mg/kg, po qd for 15 days by microarray analysis relative to control; format: functional
Rattus norvegicus [17] = assay: Toxicity in Zucker rat sub-chronic fa/fa prediabetic model assessed as serum BUN level at 1 mg/kg, po qd for 31 days measured on day 32 (reference value: 28.3 +/- […]); format: organism-based; conditions: in vivo, 744 h
[18] = Terminal half life in Sprague-Dawley rat at 10 mg/kg administered via oral gavage by LC-MS analysis; format: ADME, organism-based; conditions: in vivo, read-out: beta t1/2 (converted)
[19] = Cmax in Zucker rat sub-chronic fa/fa prediabetic model at 10 mg/kg, po qd measured on day 1 post dose; format: ADME, organism-based; parameters: dose 10 mg/kg, route oral; conditions: in vivo
Rattus norvegicus [20] = assay: Toxicity in […] chronic ob/ob model assessed as change in body weight at 3 mg/kg, po qd for 28 days measured on day 1 to 28 during compound dosing (reference value: 9.9 +/- 1.27 g); format: organism-based; conditions: in vivo, 672 h
Rattus norvegicus [21] = assay: Decrease in fed plasma triglyceride level in Zucker rat sub-chronic fa/fa prediabetic model assessed as change in plasma triglyceride level at 10 mg/kg, po qd for 4 days measured on day 5 relative to control; format: functional; parameters: scale not given: the % may be the effect or the level left
Rattus norvegicus [22] = assay: Effect on PLCB1 gene expression in epididymal white adipose tissue of Zucker rat sub-chronic fa/fa prediabetic model at 10 mg/kg, po qd for 15 days by microarray analysis relative to control; format: functional
[23] = Volume of distribution at steady state in CD-1 mouse at 5 mg/kg, iv by LC-MS analysis; format: ADME, organism-based; conditions: in vivo, read-out: Vdss
Rattus norvegicus [24] = assay: Antidiabetic activity in Zucker rat sub-chronic fa/fa prediabetic model assessed as reduction in blood glucose AUC (0 to 120 min) at 1 mg/kg, po qd for 31 days measured on day 29 post dose by OGTT relative to control; format: functional; parameters: scale not given: the % may be the effect or the level left
Rattus norvegicus [25] = assay: Effect on LPIN2 gene expression in epididymal white adipose tissue of Zucker rat sub-chronic fa/fa prediabetic model at 10 mg/kg, po qd for 15 days by microarray analysis relative to control; format: functional
[26] = Cmax in […] chronic ob/ob model at 3 mg/kg, po qd measured on day 1 post dose; format: ADME, organism-based; parameters: dose 3 mg/kg, route oral; conditions: in vivo
[27] = Tmax in Sprague-Dawley rat at 10 mg/kg administered via oral gavage by LC-MS analysis; format: ADME, organism-based; conditions: in vivo
Rattus norvegicus [28] = assay: Toxicity in Zucker rat sub-chronic fa/fa prediabetic model assessed as serum cholesterol level at 3 mg/kg, po qd for 31 days measured on day 32 (reference value: 295 +/- 91 mg/dl); format: organism-based; conditions: in vivo, 744 h
Rattus norvegicus [29] = assay: Toxicity in […] model assessed as serum cholesterol level at 3 mg/kg, po qd for 31 days measured on day 32 (reference value: 195 +/- 5.5 mg/dl); format: organism-based; conditions: in vivo, 744 h
Rattus norvegicus [30] = assay: Effect on PCK1 gene expression in epididymal white adipose tissue of Zucker rat sub-chronic fa/fa prediabetic model at 10 mg/kg, po qd for 15 days by microarray analysis relative to control; format: functional
Rattus norvegicus [31] = assay: Toxicity in Zucker rat sub-chronic fa/fa prediabetic model assessed as serum creatinine level at 10 mg/kg, po qd for 31 days measured on day 32 (reference value: 0.71 +/- 0.07 mg/dl); format: organism-based; conditions: in vivo, 744 h
Rattus norvegicus [32] = assay: Effect on NR1H3 gene expression in epididymal white adipose tissue of Zucker rat sub-chronic fa/fa prediabetic model at 10 mg/kg, po qd for 15 days by microarray analysis relative to control; format: functional
Rattus norvegicus [33] = assay: Effect on ACAT1 gene expression in epididymal white adipose tissue of Zucker rat sub-chronic fa/fa prediabetic model at 10 mg/kg, po qd for 15 days by microarray analysis relative to control; format: functional
Rattus norvegicus [34] = assay: Toxicity in Zucker rat sub-chronic fa/fa prediabetic model assessed as brown adipose tissue weight at 3 mg/kg, po qd for 31 days measured on day 32 (reference value: 2.1 +/- 0.3 g); format: organism-based; conditions: in vivo, 744 h
Rattus norvegicus [35] = assay: Effect on ADRA2C gene expression in epididymal white adipose tissue of Zucker rat sub-chronic fa/fa prediabetic model at 10 mg/kg, po qd for 15 days by microarray analysis relative to control; format: functional

Chain of Oxysterols receptor LXR-alpha (Q13133 whole entry, the tested form may be a part): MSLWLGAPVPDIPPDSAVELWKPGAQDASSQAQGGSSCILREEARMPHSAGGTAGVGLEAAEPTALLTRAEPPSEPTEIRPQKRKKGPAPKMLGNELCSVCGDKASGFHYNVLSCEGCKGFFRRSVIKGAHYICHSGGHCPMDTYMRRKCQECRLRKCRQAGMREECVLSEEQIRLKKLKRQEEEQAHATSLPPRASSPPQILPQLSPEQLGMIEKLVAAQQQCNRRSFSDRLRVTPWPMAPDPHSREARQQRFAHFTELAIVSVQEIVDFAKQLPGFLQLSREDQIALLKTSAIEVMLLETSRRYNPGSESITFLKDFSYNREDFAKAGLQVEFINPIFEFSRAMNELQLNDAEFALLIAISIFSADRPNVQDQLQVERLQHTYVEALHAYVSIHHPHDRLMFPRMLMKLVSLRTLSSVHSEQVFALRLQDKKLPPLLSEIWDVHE

CN1CC[C@@H](N2C(=O)S/C(=C\c3ccc4c(cnn4Cc4ccc(Cl)cc4C(F)(F)F)c3)C2=O)[C@H](F)C1
IC50 [1]: > 10 µM | Activity (Rattus norvegicus [2]): 557 g | Cmax [3]: 1680 ng/mL | fold change (FC) (Rattus norvegicus [4]): 1.203 | Activity (Rattus norvegicus [5]): Dose-dependent effect | Activity (Rattus norvegicus [6]): 0.66 mg/dL | fold change (FC) (Rattus norvegicus [7]): 2.352 | fold change (FC) (Rattus norvegicus [8]): -1.216 | half-life [9]: 6 h | Activity (Rattus norvegicus [10]): 0.43 mg/dL | Activity (Rattus norvegicus [11]): 5.7% | concentration at 264 h [12]: 814 ng/mL | Activity (Rattus norvegicus [13]): 331.3 mg/dL | Activity (Rattus norvegicus [14]): 0.56 mg/dL | Activity (Rattus norvegicus [15]): 14.9% | fold change (FC) (Rattus norvegicus [16]): 1.252 | Activity (Rattus norvegicus [17]): 26.9 mg/dL | half-life [18]: 4.7 h | Cmax [19]: 1570 ng/mL | Activity (Rattus norvegicus [20]): 6.3 g | Activity (Rattus norvegicus [21]): -68% | fold change (FC) (Rattus norvegicus [22]): 1.58 | Vd [23]: 6.89 L/kg | Activity (Rattus norvegicus [24]): 23% | fold change (FC) (Rattus norvegicus [25]): 1.548 | Cmax [26]: 207 ng/mL | Tmax [27]: 1.5 h | Activity (Rattus norvegicus [28]): 179 mg/dL | Activity (Rattus norvegicus [29]): 171 mg/dL | fold change (FC) (Rattus norvegicus [30]): 1.391 | Activity (Rattus norvegicus [31]): 0.57 mg/dL | fold change (FC) (Rattus norvegicus [32]): 1.389 | fold change (FC) (Rattus norvegicus [33]): 1.634 | Activity (Rattus norvegicus [34]): 4.4 g | fold change (FC) (Rattus norvegicus [35]): -1.52
